Assay results reported in ChEMBL document CHEMBL5584244, “Discovery of novel pyrrolo[2,1-c][1,4]benzodiazepine-3,11-dione (PBD) derivatives as selective HDAC6 inhibitors for the efficient treatment of idiopathic pulmonary fibrosis (IPF) in vitro and in vivo” (Eur J Med Chem, 2024).
Calls of active or inactive are those of the source. No cut-off for these calls is given here.

Experiments:
[1] = molecular target: T1, Protein deacetylase HDAC6 (Homo sapiens, UniProt Q9UBN7); experiment: Inhibition of recombinant human full length HDAC6 using Boc-Lys (Ac)-AMC as substrate incubated for 120 mins by fluorescence analysis
T1 sequence (Q9UBN7 whole entry): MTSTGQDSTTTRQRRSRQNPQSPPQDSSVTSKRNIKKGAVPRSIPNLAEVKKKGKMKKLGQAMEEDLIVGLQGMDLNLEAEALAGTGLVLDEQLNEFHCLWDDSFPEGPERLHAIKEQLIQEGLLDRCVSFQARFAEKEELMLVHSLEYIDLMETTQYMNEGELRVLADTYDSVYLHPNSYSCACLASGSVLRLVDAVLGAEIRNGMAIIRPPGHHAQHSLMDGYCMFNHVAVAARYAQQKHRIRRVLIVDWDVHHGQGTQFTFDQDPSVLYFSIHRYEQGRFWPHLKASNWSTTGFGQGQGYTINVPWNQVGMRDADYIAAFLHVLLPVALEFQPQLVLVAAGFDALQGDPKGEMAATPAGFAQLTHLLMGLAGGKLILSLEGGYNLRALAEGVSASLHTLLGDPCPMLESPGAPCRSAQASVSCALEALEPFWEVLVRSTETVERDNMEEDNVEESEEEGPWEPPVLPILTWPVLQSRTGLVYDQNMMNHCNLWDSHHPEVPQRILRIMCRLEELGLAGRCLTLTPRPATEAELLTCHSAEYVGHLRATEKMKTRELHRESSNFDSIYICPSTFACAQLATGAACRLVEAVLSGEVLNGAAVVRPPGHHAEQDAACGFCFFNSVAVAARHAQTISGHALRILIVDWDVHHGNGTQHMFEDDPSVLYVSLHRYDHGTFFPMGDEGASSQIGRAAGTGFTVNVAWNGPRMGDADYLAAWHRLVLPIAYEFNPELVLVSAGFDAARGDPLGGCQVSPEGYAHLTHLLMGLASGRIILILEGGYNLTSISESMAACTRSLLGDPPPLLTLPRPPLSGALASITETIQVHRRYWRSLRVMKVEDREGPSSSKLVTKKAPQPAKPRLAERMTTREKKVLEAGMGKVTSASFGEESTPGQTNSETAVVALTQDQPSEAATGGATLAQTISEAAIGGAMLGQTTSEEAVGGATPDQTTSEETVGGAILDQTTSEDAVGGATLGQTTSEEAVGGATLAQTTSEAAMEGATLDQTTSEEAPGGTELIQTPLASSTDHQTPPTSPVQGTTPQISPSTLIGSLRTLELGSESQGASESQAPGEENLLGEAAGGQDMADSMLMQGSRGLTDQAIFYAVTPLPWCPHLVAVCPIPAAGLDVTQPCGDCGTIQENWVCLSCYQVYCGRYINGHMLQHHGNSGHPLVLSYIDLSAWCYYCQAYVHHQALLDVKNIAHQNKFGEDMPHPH

[2] = molecular target: Histone deacetylase 1 (Homo sapiens, UniProt Q13547); experiment: Inhibition of C-terminal His6/Flag-tagged recombinant human full length HDAC1 using Boc-Lys (Ac)-AMC as substrate incubated for 120 mins by fluorescence analysis
Sequence of Histone deacetylase 1 (Q13547 whole entry): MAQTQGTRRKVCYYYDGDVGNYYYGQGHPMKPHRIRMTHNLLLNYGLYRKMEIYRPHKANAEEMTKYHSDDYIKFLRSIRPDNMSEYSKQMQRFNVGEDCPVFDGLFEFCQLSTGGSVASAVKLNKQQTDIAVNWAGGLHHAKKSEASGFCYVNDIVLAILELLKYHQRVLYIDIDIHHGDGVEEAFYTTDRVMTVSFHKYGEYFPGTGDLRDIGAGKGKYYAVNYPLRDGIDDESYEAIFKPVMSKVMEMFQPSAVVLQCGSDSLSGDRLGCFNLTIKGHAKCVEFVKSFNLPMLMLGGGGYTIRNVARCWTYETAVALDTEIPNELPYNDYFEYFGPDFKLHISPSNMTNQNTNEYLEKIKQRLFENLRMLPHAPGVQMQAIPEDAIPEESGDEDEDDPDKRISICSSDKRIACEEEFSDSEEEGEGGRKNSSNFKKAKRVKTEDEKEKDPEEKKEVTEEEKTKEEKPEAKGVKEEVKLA

[3] = molecular target: T2, Histone deacetylase 11 (Homo sapiens, UniProt Q96DB2); experiment: Inhibition of recombinant human full length HDAC11 using Boc-Lys (Tfa)-AMC as substrate incubated for 120 mins by fluorescence analysis
T2 sequence (Q96DB2 whole entry): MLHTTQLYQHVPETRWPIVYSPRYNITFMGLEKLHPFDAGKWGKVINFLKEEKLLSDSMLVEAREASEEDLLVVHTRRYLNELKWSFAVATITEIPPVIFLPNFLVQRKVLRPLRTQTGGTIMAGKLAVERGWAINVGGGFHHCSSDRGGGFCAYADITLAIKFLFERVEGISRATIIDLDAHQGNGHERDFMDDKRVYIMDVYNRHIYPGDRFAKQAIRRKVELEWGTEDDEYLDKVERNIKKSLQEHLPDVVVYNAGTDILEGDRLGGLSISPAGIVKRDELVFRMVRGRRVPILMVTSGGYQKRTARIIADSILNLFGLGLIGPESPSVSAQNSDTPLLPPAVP

[4] = Cytotoxicity against HELF cells assessed as reduction in viability at 2.5 to 10 uM after 48 hrs by MTT assay; type: toxicity, cell-based; conditions: human, dose 2.5-10 µM
[5] = molecular target: T3, Protein deacetylase HDAC6 (Homo sapiens) (UniProt Q9UBN7); experiment: Inhibition of HDAC6 in TGF-beta1-induced HELF cells assessed as upregulation of acetylated alpha-tubulin level by Western blot analysis; type: cell-based; conditions: dose 2.5-10 µM
T3 sequence (whole entry): T1 sequence (Q9UBN7 whole entry)

[6] = molecular target: T3, Protein deacetylase HDAC6 (Homo sapiens); experiment: Inhibition of HDAC6 in TGF-beta1-induced HELF cells assessed as upregulation of acetylated histone H3 level at 2.5 to 10 uM by Western blot analysis; type: cell-based; conditions: dose 2.5-10 µM
[7] = molecular target: Mothers against decapentaplegic homolog 2 (Homo sapiens) (UniProt Q15796); experiment: Inhibition of TGF-beta1-induced Smad2 protein phosphorylation level in HELF cells incubated for 48 hrs by Western blot analysis; type: cell-based; conditions: dose 2.5-10 µM
Sequence of Mothers against decapentaplegic homolog 2 (Homo sapiens) (Q15796 whole entry): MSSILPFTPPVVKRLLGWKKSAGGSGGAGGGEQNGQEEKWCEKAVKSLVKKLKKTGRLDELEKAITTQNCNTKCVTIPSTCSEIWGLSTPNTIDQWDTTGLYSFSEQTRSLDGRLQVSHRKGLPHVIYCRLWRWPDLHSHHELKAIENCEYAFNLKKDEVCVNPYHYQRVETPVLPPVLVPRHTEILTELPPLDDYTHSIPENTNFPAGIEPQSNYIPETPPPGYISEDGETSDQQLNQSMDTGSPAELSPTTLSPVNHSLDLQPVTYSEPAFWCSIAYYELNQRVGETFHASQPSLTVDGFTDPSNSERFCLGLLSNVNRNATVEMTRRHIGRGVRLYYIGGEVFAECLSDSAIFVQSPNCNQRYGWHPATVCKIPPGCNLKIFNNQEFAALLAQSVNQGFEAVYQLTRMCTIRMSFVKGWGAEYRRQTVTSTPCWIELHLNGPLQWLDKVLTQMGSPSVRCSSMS

[8] = Stability of compound in human plasma assessed as remaining parent compound at 2 uM incubated for 120 mins by LC-MS/MS analysis; type: ADME, cell-free; conditions: read-out: Stability
[9] = Half life in human liver microsomes at 100 uM by LC-MS/MS analysis; type: ADME, Microsome
[10] = tested on: Mus musculus; experiment: Anti-pulmonary fibrosis activity in bleomycin-induced C57BL/6 mouse model of pulmonary fibrosis assessed as increase in body weight at 50 to 100 mg/kg, ip for 3 weeks; type: functional, organism-based; conditions: dose 50-100 mg/kg
[11] = tested on: Mus musculus; experiment: Anti-pulmonary fibrosis activity in bleomycin-induced C57BL/6 mouse model of pulmonary fibrosis assessed as recovering mental state at 50 to 100 mg/kg, ip for 3 weeks; type: functional, organism-based; conditions: dose 50-100 mg/kg
[12] = tested on: Mus musculus; experiment: Anti-pulmonary fibrosis activity in bleomycin-induced C57BL/6 mouse model of pulmonary fibrosis assessed as inhibition of HDAC activity in lung at 50 to 100 mg/kg, ip for 3 weeks by fluorescence based microplate reader analysis; type: functional, organism-based; conditions: dose 50-100 mg/kg
[13] = tested on: Mus musculus; experiment: Anti-pulmonary fibrosis activity in bleomycin-induced C57BL/6 mouse model of pulmonary fibrosis assessed as decrease structural damage in lung at 50 to 100 mg/kg, ip for 3 weeks by H and E staining based fluorescence microscopic analysis; type: functional, organism-based; conditions: dose 50-100 mg/kg
[14] = tested on: Mus musculus; experiment: Anti-pulmonary fibrosis activity in bleomycin-induced C57BL/6 mouse model of pulmonary fibrosis assessed as decrease in collapse of the alveolar cavity in lung at 50 to 100 mg/kg, ip for 3 weeks by H and E staining based fluorescence microscopic analysis; type: functional, organism-based; conditions: dose 50-100 mg/kg
[15] = tested on: Mus musculus; experiment: Anti-pulmonary fibrosis activity in bleomycin-induced C57BL/6 mouse model of pulmonary fibrosis assessed as decrease in collapse of the alveolar cavity in lung at 50 to 100 mg/kg, ip for 3 weeks by Masson trichrome staining based microscopic analysis; type: functional, organism-based; conditions: dose 50-100 mg/kg
[16] = tested on: Mus musculus; experiment: Anti-pulmonary fibrosis activity in bleomycin-induced C57BL/6 mouse model of pulmonary fibrosis assessed as decrease in thickening of the alveolar wall in lung at 50 to 100 mg/kg, ip for 3 weeks by Masson trichrome staining based microscopic analysis; type: functional, organism-based; conditions: dose 50-100 mg/kg
[17] = tested on: Mus musculus; experiment: Anti-pulmonary fibrosis activity in bleomycin-induced C57BL/6 mouse model of pulmonary fibrosis assessed as decrease in collagen fiber deposition in lung at 50 to 100 mg/kg, ip for 3 weeks by Masson trichrome staining based microscopic analysis; type: functional, organism-based; conditions: dose 50-100 mg/kg

CC(=O)O.O=C(NO)c1ccc(CN2C(=O)[C@@H]3CCCN3Cc3ccccc32)cc1
IC50 [1]: 8.97 nM
IC50 [2]: 878 nM
IC50 [3]: > 50000 nM
Activity [4]: Non-Toxic
inhibition [5]: Dose-Dependent Effect
inhibition [6]: inactive
inhibition [7]: Dose-Dependent Effect
remaining at 2 h, 2 µM [8]: 92.3%
half-life at 100 µM [9]: > 2.42 h
Activity [10]: Active
Activity [11]: Active
inhibition [12]: Active
Activity [13]: Active
Activity [14]: Active
Activity [15]: inactive
Activity [16]: inactive
Activity [17]: Active
